Source: paper PMC10223062, “Discovery of Novel Thiophene/Hydrazones: In Vitro and In Silico Studies against Pancreatic Cancer” (Pharmaceutics, 2023)

Experiments:
MIA PaCa-2 cell line = test: 2D anticancer activity, MTT assay; format: cell-based; settings: Homo sapiens, 72 h exposure, read-out: IC50 in 2D cultured MIA PaCa-2 cell line
Protocol: (§1) For the preliminary assessment of anticancer activity in a 2D cell culture system, an MIA PaCa-2 human pancreas epithelial carcinoma (CRL-1420™) cell line (ATCC, Manassas, VA, USA) was cultured in Dulbecco’s Modified Eagle Medium with 10% fetal bovine serum (FBS, v/v) (Gibco, Billings, MT, USA) and supplemented with 1% antibiotics (10,000 μg/mL streptomycin and 10,000 U/mL penicillin) (Gibco, Billings, MT, USA) at 37 °C in a humidified 5% CO2 atmosphere. For the in vitro modeling of the tumor microenvironment, compounds were also tested in a 3D spheroid test system. For this purpose, the MIA PaCa-2 human pancreas epithelial carcinoma (CRL-1420™) cell line and human dermal fibroblast cell line HDF (PCS-201-012) cells were used.
For the assessment of anticancer activity of the compounds, the MIA PaCa-2 cells were plated in 48-well microplates at 1.5 × 10^5 cells/mL and incubated for 24 h at 37 °C in 5% CO2 in accordance with a previously reported method. Following the day, the cells were treated with compounds in various concentrations between 0.1–100 µM dissolved in dimethyl sulfoxide (DMSO) (Sigma Aldrich, St. Louis, MO, USA). Following the 72 h of incubation, culture mediums were discarded and 0.5 mg/mL 3-(4,5-Dimethylthiazol-2-yl)-2,5-Diphenyltetrazolium Bromide (MTT) (Sigma Aldrich, St. Louis, MO, USA) was added to each well for an additional 2 h at 37 °C. After 2 h incubation, the medium was discarded and 100 µL of isopropanol (Sigma Aldrich, St. Louis, MO, USA) was added to the wells to dissolve formazan crystals. The optical density was measured at 570 nm wavelength using a microplate reader (Thermo Fisher Scientific Multiskan, Finland). Doxorubicin hydrochloride (DOX) (European Pharmacopoeia standard, Sigma) was used as internal positive control, and 0.5% DMSO (v/v) was used as negative control. The percentage of cell viability was determined by using the following equation:(1) Viability %=(Absorbancecompound)/(Absorbancenegative control)×100%

[1] = test system: MIA PaCa-2 tumor spheroids; test: 3D spheroid formation/growth assay; format: cell-based, human; design: Spheroid Diameter Day 0 / Spheroid Diameter Day 9: unit not given here; settings: for Spheroid Diameter Day 0: Day 0 (baseline); for Reduction of spheroid diameter: 9 days
Protocol: as §1
For 3D spheroid formation, the MIA PaCa-2 cells (PC cell line) and HDF cells were used according to the 3D Bioprinting method. To better simulate the tumor microenvironment, PC cells were mixed (1:1) with human fibroblasts. Briefly, the MIA PaCa-2 cells and human fibroblasts at 70–80% confluency were added to a 6-well plate and incubated with biocompatible NanoShuttle TM-PL (Bioprinting Kit, Greiner Bio-One, Germany) overnight at 37 °C in a humidified 5% CO2 atmosphere. After the nanoparticles were taken up by the cells, they were resuspended and seeded into an ultra-low attachment 96-well plate at a volume of 100 μL (2000 PC cells and 2000 human fibroblasts per well) volume. The plate was placed on a magnetic drive and incubated at 37 °C in a humidified 5% CO2 atmosphere until spheroids were formed. After two days of incubation, the spheroids were photographed using light microscopy (Carl Zeiss Primo Vert, Germany). Fresh medium containing 0.1, 1, 10, and 100 µM of tested compound was added to the wells. Photos were taken every 72 h, and the medium was replaced every 72 h. The effect of the tested compounds in 3D PC cell cultures was examined by measuring the size change of spheroids using ImageJ software (ImageJ 2.0 software, USA).

Row | IC50 (MIA PaCa-2 cell line) [µM] | Structure (SMILES) | Spheroid Diameter Day 0 ([1]; 0.1 µM group) | Spheroid Diameter Day 9 ([1]; 0.1 µM) | Spheroid Diameter Day 0 ([1]; 1 µM group) | Spheroid Diameter Day 9 ([1]; 1 µM) | Spheroid Diameter Day 0 ([1]; 10 µM group) | Spheroid Diameter Day 9 ([1]; 10 µM) | Reduction in spheroid size ([1]; 10 µM, after 9 days of treatment) [%] | Spheroid Diameter Day 0 ([1]; 100 µM group) | Reduction of spheroid diameter ([1]; 100 µM) [%] | Spheroid Diameter Day 9 ([1]; 100 µM) | Spheroid state at the end of the 9 days ([1]; 10–100 µM) | Spheroid state at the end of the 9 days ([1]; 100 µM)
1 | 7.51 ± 0.08 | O=C(N/N=C/c1ccccc1O)c1cc(-c2ccccc2)c(-c2ccccc2)s1 [7a, N’-[(E)-(2-hydroxyphenyl)methylidene]-4,5-diphenylthiophene-2-carbohydrazide] | 1156.5 ± 14.2 | 5050.5 ± 36.9 | 1186.5 ± 91.9 | 1755.0 ± 58.9 | 1176.0 ± 31.1 | 636.0 ± 12.7 | 46 | 1183.0 ± 36.1 | 65 | 432.0 ± 17.4 |  | 
2 | > 100 | COc1cc(/C=N/NC(=O)c2cc(-c3ccccc3)c(-c3ccccc3)s2)ccc1O [7e, N’-[(E)-(3-methoxy-4-hydroxyphenyl)methylidene]-4,5-diphenylthiophene-2-carbohydrazide] | 1181.5 ± 33.2 | 5607.5 ± 44.55 | 1153.0 ± 73.5 | 6396.0 ± 16.1 |  |  |  |  |  |  | disintegrated | 
3 | 42.8 ± 3.59 | O=C(N/N=C/c1ccc(O)cc1)c1cc(-c2ccccc2)c(-c2ccccc2)s1 [7c, N’-[(E)-(4-hydroxyphenyl)methylidene]-4,5-diphenylthiophene-2-carbohydrazide] | 1118.0 ± 31.1 | 5415.0 ± 12.7 | 1168.0 ± 52.7 | 6174.0 ± 106.1 | 989.5 ± 54.1 | 3729.5 ± 12.8 |  | 940.5 ± 33.9 |  | 2207.0 ± 47.1 |  | 
4 | 9.09 ± 1.04 | COc1ccccc1/C=N/NC(=O)c1cc(-c2ccccc2)c(-c2ccccc2)s1 [7d, N’-[(E)-(2-methoxyphenyl)methylidene]-4,5-diphenylthiophene-2-carbohydrazide] | 1127.5 ± 36.1 | 4911.0 ± 117.4 | 1211.0 ± 17.9 | 6312.5 ± 24.8 | 1297.5 ± 55.1 | 1708.0 ± 87.1 |  | 974.0 ± 32.2 | 55 | 445.7 ± 64.1 |  | 
5 | 4.86 ± 0.19 | COc1ccc(/C=N/NC(=O)c2cc(-c3ccccc3)c(-c3ccccc3)s2)cc1O [7f, N’-[(E)-(3-hydroxy-4-methoxyphenyl)methylidene]-4,5-diphenylthiophene-2-carbohydrazide] | 1110.0 ± 113.1 | 5823.0 ± 39.8 | 1108.0 ± 17.6 | 4336.0 ± 48.1 | 1215.0 ± 12.7 | 2806.0 ± 31.5 |  |  |  |  |  | disintegrated
